{"source": "patent US5744452A", "about": "“γ-L-glutamyl containing immunomodulator compounds and methods therewith” (Wei; Edward T., priority 1995, dated 1998)", "key": {"[1]": {"tested_on": "murine spleen cells", "experiment": "IL-2 production by Concanavalin A activated murine spleen cells (CTLL-2 cell assay)", "assay_type": "cell-based, CBA mice", "settings": "for IL-2 production by murine spleen cells: Table 2; for interleukin-2 production by murine spleen cells: Table 6", "procedure": "Spleen cells from CBA mice were cultured in tissue culture plates at a 10^6 cells/ml in RPMI-1640 medium supplemented with 10% fetal calf serum, 2 mM L-glutamine, and 80 μg/ml of Gentamycin. 1 μg/ml of Concanavalin A was used to activate basal IL-2 production from murine spleen lymphocytes. Bestim was added to cell cultures at the \"0\" time. After 36 hours supernatants were collected, centrifuged at 800 xg and IL-2 levels were measured in a CTLL-2 cell assay (Gillis et al., \"T-cell Growth Factor: Parameters of Production and Quantitative Assay for Activity,\" J. Immunol., 120: 2027-2032, 1978). […] However, due to the variations in the method for IL-2 measurements clear dose-response comparisons could not be achieved.\nIL-2 production studies have been performed using murine spleen lymphocytes activated with Concanavalin A. Spleen cells from CBA mice were cultured in a tissue culture plates at a 1×10^6 /ml concentration in RPMI-1640 medium supplemented with 10% fetal calf serum, 2 mM L-glutamine,80 μg/ml Gentamycin and 1 μg/ml Concanavalin A as an inducer of basal level IL-2 synthesis. Bestim at various concentration was added to cell cultures at the \"0\" time. After 36 hours supernatants were collected, centrifuged at 800 xg and used for IL-2 levels determination in a CTLL-2 cell assay (Gillis et al., 1978). IL-2-dependent CTLL-2 cells were grown in RPMI-1640 medium in the presence of 1-2 U/ml recombinant IL-2 as a growth factor. Before assay, cells were washed twice to remove IL-2 from the medium. After this wash tested supernatants were added and cells were incubated for 36 hours. IL-2-induced proliferation was assayed using a ^3 H-thymidine incorporation method."}, "[2]": {"tested_on": "patients with disseminated cancer", "experiment": "Study in patients with disseminated cancer after anticancer therapy", "assay_type": "in vivo, human", "settings": "for Adhesion (%) / B-cells / B-cells (%) / Blastransformation, LPS / Blastransformation, PHA / Blastransformation, spontaneous / CD3 / CD3 (%) / CD4 / CD4 (%) / CD4/CD8 / CD8 / CD8 (%) / Cationic proteins / Chemiluminescence, luminol (induced) / Chemiluminescence, luminol (spontaneous) / IgA / IgG / IgM / Myeloperoxidase activity / NBT reduction test / NK activity (%) / NK-cells / NK-cells (%) / Stimulation index, LPS / Stimulation index, PHA: cancer patients", "procedure": "Preliminary studies were conducted to characterize the immunomodulatory properties of Bestim in human subjects. The protocol for the human subjects studies were reviewed and approved by a Hospital Committee (Moscow Hospital N-24) and informed consent was obtained from all subjects. All 62 patients received by intramuscular injection 0.1 mg of Bestim dissolved in 1.5 to 2.0 ml of sterile saline, one injection per day for 5 days. Patients participating in the clinical trials were from 2 groups:\nThe first group consisted of 34 patients with disseminated cancer (29 with colon cancer, 2 with primary brain gliomas, 2 with stage III gastric cancer, 1 with stage IIIb breast cancer). These patients received Bestim therapy after standard anticancer therapy which included surgical treatment and chemotherapy with 5-fluorouracil. It should be noted here that the goal of Bestim therapy in these patients was not to treat the tumor but to correct the immunodeficiency that accompanied this disease and which occurs as a consequence of anticancer therapy. Placebo (saline injections) were administered to 14 subjects.\nLaboratory measurements (data in Table 8 to 10) were performed one day before and compared to values obtained three days after injection of Bestim."}}}
{"compound": "N[C@@H](CCC(=O)N[C@@H](Cc1c[nH]c2ccccc12)C(=O)O)C(=O)O", "note": "[Bestim, γ-L-glutamyl-L-tryptophan]", "values": [{"measurement": "IL-2 production by murine spleen cells", "setting": "[1]; peptide 0.001 μg/ml, 36 hours", "value": "159 ± 13"}, {"measurement": "IL-2 production by murine spleen cells", "setting": "[1]; peptide 0.01 μg/ml", "value": "134 ± 8"}, {"measurement": "IL-2 production by murine spleen cells", "setting": "[1]; peptide 0.1 μg/ml", "value": "98 ± 5"}, {"measurement": "IL-2 production by murine spleen cells", "setting": "[1]; peptide 1.0 μg/ml", "value": "157 ± 10"}, {"measurement": "IL-2 production by murine spleen cells", "setting": "[1]; peptide 10 μg/ml", "value": "95 ± 4"}, {"measurement": "IL-2 production by murine spleen cells", "setting": "[1]; peptide 100 μg/ml", "value": "112 ± 3"}, {"measurement": "interleukin-2 production by murine spleen cells", "setting": "[1]; peptide 0.001 μg/ml", "value": "149 ± 2"}, {"measurement": "interleukin-2 production by murine spleen cells", "setting": "[1]; peptide 0.01 μg/ml", "value": "162 ± 4"}, {"measurement": "interleukin-2 production by murine spleen cells", "setting": "[1]; peptide 0.1 μg/ml", "value": "172 ± 9"}, {"measurement": "interleukin-2 production by murine spleen cells", "setting": "[1]; peptide 1.0 μg/ml", "value": "271 ± 11"}, {"measurement": "interleukin-2 production by murine spleen cells", "setting": "[1]; peptide 10 μg/ml", "value": "160 ± 8"}, {"measurement": "interleukin-2 production by murine spleen cells", "setting": "[1]; peptide 100 μg/ml", "value": "186 ± 6"}, {"measurement": "effect on IL-2 secretion from cells", "setting": "[1]; conclusion from Table 2", "value": "enhances IL-2 secretion from cells at low doses"}, {"measurement": "patients who subjectively felt better and were improved in the physician's opinion", "setting": "[2]; 30 out of 34 cancer patients, 0.1 mg i.m. per day for 5 days", "value": 88, "unit": "%"}, {"measurement": "patients with negative changes in immunological parameters", "setting": "[2]; cancer patients N = 34", "value": 9, "unit": "%"}, {"measurement": "patients with no significant change in immunological parameters", "setting": "[2]; cancer patients N = 34", "value": 18, "unit": "%"}, {"measurement": "patients with positive changes in immunological parameters", "setting": "[2]; cancer patients N = 34", "value": 73, "unit": "%"}, {"measurement": "Adhesion (%)", "setting": "[2]; Bestim After", "value": "47.6 ± 5.7", "unit": "%"}, {"measurement": "B-cells", "setting": "[2]; Bestim After", "value": "240 ± 90 10^6 cells/L"}, {"measurement": "B-cells (%)", "setting": "[2]; Bestim After", "value": "7.1 ± 2.2", "unit": "%"}, {"measurement": "Blastransformation, LPS", "setting": "[2]; Bestim After", "value": "2738 ± 305"}, {"measurement": "Blastransformation, PHA", "setting": "[2]; Bestim After", "value": "21661 ± 5674"}, {"measurement": "Blastransformation, spontaneous", "setting": "[2]; Bestim After", "value": "434 ± 73"}, {"measurement": "CD3", "setting": "[2]; Bestim After", "value": "1940 ± 234 10^6 cells/L"}, {"measurement": "CD3 (%)", "setting": "[2]; Bestim After", "value": "70 ± 4", "unit": "%"}, {"measurement": "CD4", "setting": "[2]; Bestim After", "value": "923 ± 114 10^6 cells/L"}, {"measurement": "CD4 (%)", "setting": "[2]; Bestim After", "value": "35 ± 2", "unit": "%"}, {"measurement": "CD4/CD8", "setting": "[2]; Bestim After", "value": "1.16 ± 0.09"}, {"measurement": "CD8", "setting": "[2]; Bestim After", "value": "757 ± 75 10^6 cells/L"}, {"measurement": "CD8 (%)", "setting": "[2]; Bestim After", "value": "29 ± 2", "unit": "%"}, {"measurement": "Cationic proteins", "setting": "[2]; Bestim After", "value": "52.4 ± 3.3", "unit": "Units"}, {"measurement": "Chemiluminescence, luminol (induced)", "setting": "[2]; Bestim After", "value": "5294 ± 789"}, {"measurement": "Chemiluminescence, luminol (spontaneous)", "setting": "[2]; Bestim After", "value": "827 ± 299"}, {"measurement": "IgA", "setting": "[2]; Bestim After", "value": "4.1 ± 0.7", "unit": "g/L"}, {"measurement": "IgG", "setting": "[2]; Bestim After", "value": "14.4 ± 1.0", "unit": "g/L"}, {"measurement": "IgM", "setting": "[2]; Bestim After", "value": "2.2 ± 0.4", "unit": "g/L"}, {"measurement": "Myeloperoxidase activity", "setting": "[2]; Bestim After", "value": "479 ± 97", "unit": "Units"}, {"measurement": "NBT reduction test", "setting": "[2]; Bestim After", "value": "160 ± 21", "unit": "Units"}, {"measurement": "NK activity (%)", "setting": "[2]; Bestim After", "value": "28 ± 1.5", "unit": "%"}, {"measurement": "NK-cells", "setting": "[2]; Bestim After", "value": "267 ± 32 10^6 cells/L"}, {"measurement": "NK-cells (%)", "setting": "[2]; Bestim After", "value": "12.0 ± 1.7", "unit": "%"}, {"measurement": "Stimulation index, LPS", "setting": "[2]; Bestim After", "value": "7.4 ± 0.7"}, {"measurement": "Stimulation index, PHA", "setting": "[2]; Bestim After", "value": "48.9 ± 10.3"}, {"measurement": "Adhesion (%)", "setting": "[2]; Bestim Before", "value": "49.6 ± 5.9", "unit": "%"}, {"measurement": "B-cells", "setting": "[2]; Bestim Before", "value": "152 ± 58 10^6 cells/L"}, {"measurement": "B-cells (%)", "setting": "[2]; Bestim Before", "value": "5.0 ± 1.3", "unit": "%"}, {"measurement": "Blastransformation, LPS", "setting": "[2]; Bestim Before", "value": "2328 ± 438"}, {"measurement": "Blastransformation, PHA", "setting": "[2]; Bestim Before", "value": "5998 ± 1745"}, {"measurement": "Blastransformation, spontaneous", "setting": "[2]; Bestim Before", "value": "373 ± 63"}, {"measurement": "CD3", "setting": "[2]; Bestim Before", "value": "1430 ± 183 10^6 cells/L"}, {"measurement": "CD3 (%)", "setting": "[2]; Bestim Before", "value": "65 ± 4", "unit": "%"}, {"measurement": "CD4", "setting": "[2]; Bestim Before", "value": "582 ± 54 10^6 cells/L"}, {"measurement": "CD4 (%)", "setting": "[2]; Bestim Before", "value": "28 ± 2", "unit": "%"}, {"measurement": "CD4/CD8", "setting": "[2]; Bestim Before", "value": "1.04 ± 0.08"}, {"measurement": "CD8", "setting": "[2]; Bestim Before", "value": "572 ± 53 10^6 cells/L"}, {"measurement": "CD8 (%)", "setting": "[2]; Bestim Before", "value": "25 ± 2", "unit": "%"}, {"measurement": "Cationic proteins", "setting": "[2]; Bestim Before", "value": "49.9 ± 5.9", "unit": "Units"}, {"measurement": "Chemiluminescence, luminol (induced)", "setting": "[2]; Bestim Before", "value": "6991 ± 2101"}, {"measurement": "Chemiluminescence, luminol (spontaneous)", "setting": "[2]; Bestim Before", "value": "475 ± 141"}, {"measurement": "IgA", "setting": "[2]; Bestim Before", "value": "4.5 ± 0.8", "unit": "g/L"}, {"measurement": "IgG", "setting": "[2]; Bestim Before", "value": "14.2 ± 1.0", "unit": "g/L"}, {"measurement": "IgM", "setting": "[2]; Bestim Before", "value": "1.9 ± 0.4", "unit": "g/L"}, {"measurement": "Myeloperoxidase activity", "setting": "[2]; Bestim Before", "value": "467 ± 87", "unit": "Units"}, {"measurement": "NBT reduction test", "setting": "[2]; Bestim Before", "value": "157 ± 19", "unit": "Units"}, {"measurement": "NK activity (%)", "setting": "[2]; Bestim Before", "value": "29 ± 1.3", "unit": "%"}, {"measurement": "NK-cells", "setting": "[2]; Bestim Before", "value": "256 ± 44 10^6 cells/L"}, {"measurement": "NK-cells (%)", "setting": "[2]; Bestim Before", "value": "13.4 ± 2.3", "unit": "%"}, {"measurement": "Stimulation index, LPS", "setting": "[2]; Bestim Before", "value": "7.6 ± 0.6"}, {"measurement": "Stimulation index, PHA", "setting": "[2]; Bestim Before", "value": "15.9 ± 4.5"}]}
